US9096607B2, “Tumor necrosis factor inhibitors” (THE TRUSTEES OF THE UNIVERSITY OF PENNSYLVANIA, priority 2005, dated 2015)

How the values were obtained:
mutant TNF-R1 = molecular target: T1, mutant TNF-R1 (Homo sapiens, UniProt P19438, F141E/Q111E); assay: Isothermal titration calorimetry, binding to mutant TNF-R1 (82E, 112E); conditions: ITC, TNF-R1 mutated to 82E and 112E
T1 construct: The ectodomain of wild type TNF receptor 1 was obtained by PCR from pKP13; made in house
T1 sequence (P19438 30-211 Q111E/F141E limits assumed): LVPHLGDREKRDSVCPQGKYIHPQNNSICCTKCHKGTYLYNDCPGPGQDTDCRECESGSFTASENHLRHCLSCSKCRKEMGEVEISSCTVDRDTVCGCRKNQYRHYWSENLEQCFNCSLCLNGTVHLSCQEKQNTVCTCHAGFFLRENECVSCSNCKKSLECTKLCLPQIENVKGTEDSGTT
From the text: The ectodomain of wild type TNF receptor 1 was obtained by PCR from pKP13 (as described in Beutler et al., Annu. Rev. Biochem. 57, 505-518 (1988)) with 5′ primer AAAAAACATATGTACCCCTCAGGGGTTATTGG (SEQ ID NO:2) and 3′ primer CCGCTCGAGTCAATGATGATG ATGATG ATGTGTGGTGCCTGAGTCCTCAG, (SEQ ID NO:3) and constructed into PET21 (Novagen, San Diego, Calif.) between Nde1 and XhoT, verified by sequencing. Mutant TNF receptor 1 was obtained from site-directed mutagenesis by using a QuikChange mutagenesis kit (Stratagene, La Jolla, Calif.). The plasmid was then transformed into Origami™ (DE3) (Novagen, San Diego, Calif.). The cells were grown until A600 was 0.6 and were induced by addition of 0.2 mM of IPTG. The cells were then induced for 3 h and harvested by centrifugation at 3500 rpm for 10 min. The wild type and mutant TNF-R1 were all expressed in the inclusion bodies of the cells and were extracted and refolded as described in Lin et al., Biotechniques 11, 748 (December 1991). […]
The binding thermodynamics of inhibitors to the TNF receptor was measured by isothermal titration calorimetry (ITC) using a high-precision VP-ITC titration calorimetric system (MicroCal Inc, Northampton, Mass.). […] Data were analyzed and fitted using the data analysis software supplied by MicroCal (Origin version 5.0).

[1] = tested on: collagen induced arthritis; assay: Collagen induced arthritis in mice; assay type: in vivo, mouse; conditions: DBA/1 mice
Description: Activity of compound I-9 was studied in a mouse collagen induced arthritis system, which is a model for human rheumatoid arthritis. Six to eight weeks old male DBA/1 mice were immunized by multiple intradermal injections of 100 μg chicken type II collagen (Sigma Chemical Co., St. Louis, Mo.) in 100 μl of 0.1 M acetic acid emulsified in an equal volume of complete Freund's adjuvant and were then challenged with the same antigen preparation i.p. on the 21st day. Animals were injected daily with the compound I-9 at different dosages (2-4 mg/kg/day) beginning on day 21 and animals were examined physically every other day in a blinded manner. In this model, disease typically develops 7-10 days after the second immunization, and the severity of disease can be determined by physical examination, joint histochemistry, or both techniques. […] Male DBA/1 mice (6-8-wk-old) were purchased from Jackson Laboratory (Bar Harbor, Me.) and housed in University of Pennsylvania Animal Care Facilities. Animals were maintained in accordance with guidelines of Institutional Animal Care and Use Committee (IACUC) of the University of Pennsylvania. For CIA induction, mice were immunized by multiple intradermal injections of 100 μg chicken type II collagen (Sigma Chemical Co., St. Louis, Mo.) in 100 μL of 0.1M acetic acid emulsified in an equal volume of complete Freund's adjuvant. Mice were challenged with the same antigen preparation i.p. at the 21st day. Mice were injected daily with the test compound at different dosage (2 and 4 mg/kg of body weight) from day 21. Disease develops 7-10 day after the second immunization. Mice were examined physically every other day in a blind manner. Their paws were scored individually as follows: 0=normal; 1=Erythema and mild swelling confined to the ankle joint or toes; 2=Erythema and mild swelling extending from the ankle to the midfoot or ankle joint; 3=Erythema and moderate swelling extending from the ankle to the metatarsal joints; and 4=Erythema and severe swelling encompass the ankle, foot, and digits. The maximum disease score per foot is 4, and the maximum disease score per mouse is 16. For histological examination of the joint, mice were killed at different time points, and their paws were collected and fixed in 10% formalin. The paws were then decalcified in hydrochloric acid, embedded in paraffin, sectioned, and stained with hematoxylin and eosin (H&E).

SMILES: CC(=O)Oc1ccc(C(C)(c2ccc(OC(C)=O)cc2)c2ccc(OC(C)=O)cc2)cc1 [Compound I-9, 1,1,1-Tris-(4-acetoxyphenyl)ethane]
- binding to the mutant receptor (mutant TNF-R1): no longer bound
- clinical symptoms of arthritis ([1]; 2-4 mg/kg/day daily from day 21, vs untreated or control groups): dose dependent decrease
- cartilage destruction ([1]; treated): prevented
- infiltration, histological analysis of ankle joints ([1]; treated): markedly reduced
- synovial tissue, histological analysis of ankle joints ([1]; treated): less synovial tissue
